Laboratory results as given in patent publication US20200000871A1, “B-1A LYMPHOCYTE AND/OR MACROPHAGE TARGETING AND ACTIVATION TO TREAT MEDICAL CONDITIONS WITH INFLAMMATORY OR AUTOIMMUNE COMPONENTS” (THE BOARD OF TRUSTEES OF THE LELAND STANFORD JUNIOR …, priority 2015, published 2020).
Where no end group is shown, it is not given here.

Experiments:
peritoneal cells = assay: Viability of peritoneal cells incubated in vitro with fibrils; format: cell-based, C57BL/6 mice; conditions: 1.0-0.125 μg/well, 30 or 120 minutes, PI staining
Procedure: FIG. 3. […] Peritoneal cells were isolated by lavage of C57BL/6 mice, aliquoted 500,000 cells per well of a 96 well round bottomed plate and treated with 1.0, 0.5, 0.25, 0.125 μg/well of Amylin 28-33 for 30 minutes or 120 minutes in DMEM with 10% FCS. At the end of the incubation the cells were spun, supernatant aspirated, and the cells were stained with rat anti-mouse CD11b (Pacific Blue), CD5 (PE), CD19 (APC), and incubated for 30 minutes on ice. The cells were washed once, aspirate transferred to FACS tubes, PI added, and analyzed by flow cytometry.

[1] = tested on: B-1a lymphocytes and LPMs; assay: Bioluminescence imaging of trafficking of adoptively transferred luc+ B-1a lymphocytes and LPMs; format: in vivo, C57BL/6 albino mice
Procedure: B-1a lymphocytes and peritoneal MΦs were purified by cell sorting of peritoneal cells isolated from luciferase transgenic mice ((B6.FVB-Ptprca Tg(CAG-luc,-GFP)L2G85Chco Thy1a/J), which express the CAT-luc-eGFP, L2G85 transgene). In the initial experiment 2×10^5 and 1×10^5 B-1a lymphocytes were injected in the peritoneum of C57BL/6 female albino mice (B6(Cg)-Tyr^c-2J/J), followed by injection of 10 μg of Tau 623-628 to activate the lymphocytes, and 0.3 mg/g body weight of luciferin substrate (D luciferin firefly L-8220 Biosynth) to initiate the bioluminescence imaging. The location of the luciferase expressing cells was measured by imaging every 5 minutes for 75 minutes.
To confirm the diminution of luminescence was due to the trafficking of the luc^+ cells, and not the degradation of the luciferin, two C57BL/6 albino mice were injected with […] peritoneal MΦs, a third with 2×10^5 B-1a lymphocytes, and fourth mouse serving as a BLI control was injected with luciferin only. The mice were subsequently injected with 10 μg of Tau 623-628 and 0.3 mg/gram of luciferin. Bioluminescence was measured immediately after the injection of luciferin and 5 minutes later. After thirty minutes the mice were reinjected with luciferin and the resultant luminescence measured. […] Imaging data were analyzed and quantified with Living Image software 4.4 (Xenogen).
Amyloidogenic peptides induce exodus of B-1a lymphocytes and LPM from the peritoneal cavity. […] The location of the luciferase expressing cells was monitored by imaging the mice every 5 minutes for 75 minutes (FIG. 5, top left). The diffuse distribution of the luminescence, corresponding to the peritoneal cavity, seen at early times, was reduced in intensity over time, with focal regions of intensity appearing to localize in inguinal lymph nodes beginning at 35 minutes (FIG. 5, top left). […]
To better assign the basis of the reduction of luminescence to the migration of the luc^+ cells, a second experiment was performed with four recipient mice. […] Bioluminescence was measured immediately after the injection of luciferin and 5 minutes later. […]

[2] = tested on: peritoneal cells (B-1a and B-2 lymphocytes, LPMs, T lymphocytes, mast cells); assay: Binding and endocytosis of FITC-Tau fibrils by peritoneal cells after i.p. injection (confocal microscopy, flow cytometry); format: in vivo, C57BL/6 mice; conditions: 10 μg i.p., peritoneal cells stained for CD19 and F4/80
Procedure: C57B/6 female mice were injected with FITC-Tau 623-628, and peritoneal cells were isolated after 10 minutes, washed, stained with rat antimouse CD19 (PE), F4/80 (Alexa Fluor 647), and DAPI, washed, and plated on polylysine coated microscope slides. Cells were visualized using a Leica TCS SP8 white light laser confocal microscope.
Peptides were synthesized using solid phase techniques and commercially available Fmoc amino acids, resins, and reagents (PE Biosystems, Foster City Calif., and Bache, Torrance, Calif.) on an Applied Biosystems 433A peptide synthesizer as previously described. Wender et al. (2000) Proc. Natl. Acad. Sci. USA 97(24):13003-13008. […] The molecular weight of the peptides was confirmed using matrix assisted laser desorption mass spectrometry. To prevent excess amounts of fluorophore in the fibrils, Tau 623-628 was mixed at a ratio of 10:1 with an analog with FITC attached to the amino terminus of Tau 623-628 with an amino caproic acid linker. The resulting fibril mixture is referred to in the text as FITC-Tau.
Peritoneal cavity cells were obtained by flushing the peritoneal cavity with 10 ml of cold PBS containing 0.1% bovine serum albumin and 5 mM EDTA. […]

μMT mice with EAE = assay: EAE in B cell-deficient μMT mice, with or without adoptive transfer of B-1a lymphocytes; format: in vivo; conditions: 10 μg daily i.p., no cell transfer
Procedure: Induction of active EAE in mice by immunization with MOG and adjuvant. EAE was induced in female wild type C57Bl/6 mice or μMT and IL-10 deficient mice on C57B/6 background (Jackson Laboratories) by procedures previously described. Briefly, EAE was induced at 9 weeks of age by subcutaneous immunization in the flank with an emulsion containing 200 μg myelin oligodendrocyte glycoprotein35-55 (MOG35-55; […] (SEQ ID NO: 1065)) in saline and an equal volume of complete Freund's adjuvant containing […] mycobacterium tuberculosis H37RA (Disco Laboratories). All mice were given 400 ng of pertussis toxin (List Biological) intraperitoneal (i.p.) at 0 and 48 h post-immunization. The signs of neurological impairment were scored as follows: 0, no clinical disease; 1, tail weakness; 2, hindlimb weakness; 3, complete hindlimb paralysis; 4, hindlimb paralysis and some forelimb weakness; 5, moribund or dead. […] For intranasal inoculation, 10 μg of Amylin 28-33 in 10 μl PBS was gradually released into the nostrils of anesthetized mice. All animal protocols were approved by institutional IACUC.
B-1a lymphocytes were purified by cell sorting of peritoneal cells from wild type C57Bl/6 mice. […] Mice were examined daily for clinical signs of EAE and were scored on a five point scale described above.

[3] = tested on: B-1a lymphocytes and peritoneal MΦs (SPM, LPM); assay: Differential gene expression (microarray, qPCR) in sorted B-1a lymphocytes and peritoneal MΦs after i.p. injection; format: in vivo, C57BL/6 mice; conditions: 10 μg i.p., cells isolated 30-40 minutes after injection
Procedure: Total RNA was extracted from FACS purified B-1a lymphocytes and peritoneal MΦs pooled from 3-6 C57BL/6 female mice injected with 10 μg of LPS, Tau 623-628, Amylin 28-33, or PBS using Trizol reagent and the Qiagen RNeasy micro kit. First strand cDNA was synthesized with 30-50 ng of total RNA using Superscript III first strand synthesis supermix for qRT-PCR. QPCR assays were performed using the 7900HT Fast Real Time PCR System (Applied Biosystems), and the Taqman Gene Expression Arrays (Applied Biosystems) using commercially available primers (ABI). All assays were performed according to manufacturer's instructions. The comparative Ct method for relative quantification (ΔΔCt) was used to compare gene expression. […]
Gene expression changes associated with treatment with LPS, Amylin 28-33, and Tau 623-628, were quantified using a microarray (SurePrint G3 Mouse; Agilent Technologies). […] Analysis and quantitation of the data were done using GeneSpring and Ingenuity software.
To confirm and increase the understanding of how the fibrils are activating the peritoneal cells, differential gene induction in purified B-1a and LPMs was analyzed. […] B-1a lymphocytes (CD19^hiCD5^+CD23^−) and LPMs (CD11b^hi MΦs) from the four groups of three mice were sorted into Trizol, RNA extracted, and gene expression measured using a murine Agilent whole genome expression microchip. […]

PBMCs = assay: Type 1 IFN response and cytokine production in PBMCs of treated mice; conditions: mouse, in vivo

Substance	cell viability / cell death of peritoneal cells in vitro (peritoneal cells)	increase in luminescence over inguinal lymph nodes ([1]; 60 min compared with 5 min, luc+ LPMs, 10 μg i.p.)	time at which focal luminescence begins to localize in inguinal lymph nodes ([1]; luc+ B-1a lymphocytes, 10 μg i.p.)	photons per second in the abdominal region ([1]; luc+ B-1a lymphocytes, over 75 minutes)	binding and endocytosis of fibrils by B cells and MΦs (confocal microscopy) [2]	therapeutic effect on paralytic signs of EAE in μMT mice (μMT mice with EAE)	pattern of gene expression (microarray heatmap) [3]	type 1 IFN induction (PBMCs)
SSTNVG [Amylin 28-33, SSTNVG]	does not affect cell viability	–	–	–	–	–	–	–
VQIVYK [Tau 623-628, amyloidogenic hexapeptide of tau, forms amyloid fibrils]	–	~10 fold	35 min	rapid, dose dependent, reduction of light emitted	bind and are endocytosed	neither Tau 623-628, nor Amylin 28-33 was therapeutic	induce a different pattern of gene expression than LPS	induced a type 1 interferon (IFN) response
